Data on twelve compounds can be found in ChEMBL document CHEMBL5252536, “Discovery of VU0467485/AZ13713945: An M4 PAM Evaluated as a Preclinical Candidate for the Treatment of Schizophrenia” (ACS Med Chem Lett, 2017).

Assay [1] addresses T1, Muscarinic acetylcholine receptor M4 (Homo sapiens) (UniProt P08173).
T1 sequence (whole entry): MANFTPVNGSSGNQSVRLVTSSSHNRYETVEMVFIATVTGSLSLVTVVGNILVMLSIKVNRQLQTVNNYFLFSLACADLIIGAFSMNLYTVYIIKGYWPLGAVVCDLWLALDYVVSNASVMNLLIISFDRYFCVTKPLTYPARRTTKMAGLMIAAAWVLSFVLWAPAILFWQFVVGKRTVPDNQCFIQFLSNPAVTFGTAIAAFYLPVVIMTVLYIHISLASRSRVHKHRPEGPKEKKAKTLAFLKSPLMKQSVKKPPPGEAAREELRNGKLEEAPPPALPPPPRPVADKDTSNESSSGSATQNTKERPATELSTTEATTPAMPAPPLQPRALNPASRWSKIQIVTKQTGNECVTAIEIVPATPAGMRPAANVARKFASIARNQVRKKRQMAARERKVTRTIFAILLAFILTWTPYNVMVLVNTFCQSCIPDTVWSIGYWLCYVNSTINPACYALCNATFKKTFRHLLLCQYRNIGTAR
As to the kind of experiment: Positive allosteric modulator activity at human M4 receptor expressed in CHO cells co-expressing Gqi5 assessed as maximal response to ACh by calcium mobilization assay relative to contol. The class given is cell-based. As to conditions: filed as positive allosteric modulator.

Assay [2] addresses T2, Muscarinic acetylcholine receptor M4 (Homo sapiens, UniProt P08173).
T2 sequence (P08173 whole entry): T1 sequence (whole entry)
As to the kind of experiment: Positive allosteric modulator activity at human M4 receptor expressed in CHO cells co-expressing Gqi5 in presence of EC20 concentration of acetylcholine by calcium mobilization assay. The class given is cell-based. On the technique in general: Calcium flux is commonly read through the fluorescence of an indicator in the cells.

What is called pEC50 is the EC50 on a negative log10 scale, so that one unit is a factor of ten.

For `COc1c(F)cc(CNC(=O)c2sc3nnc(C)c(C)c3c2N)cc1F`, the Activity in assay [1] is 75.3%. Also, in assay [2] (read-out: EC50), the EC50 is 84.1 nM.
For the compound `COc1ccc([C@@H](C)NC(=O)c2sc3nnc(C)c(C)c3c2N)cc1F`, in assay [2] (cho), the pEC50 is less than 5. Besides, in assay [2] (read-out: EC50), the EC50 is greater than 10000 nM.
As to `Cc1nnc2sc(C(=O)NCc3ccc(O)cc3)c(N)c2c1C`, the Activity in assay [1] worked out at 69.8%. For the same compound, the EC50 in assay [2] (read-out: EC50) came to 96.7 nM.
The like results for `COc1ccc([C@H](C)NC(=O)c2sc3nnc(C)c(C)c3c2N)cc1F` were, in that order, 62.4% and 508 nM.
The like results for `COc1ccc(CNC(=O)c2sc3nnc(C)c(C)c3c2N)c(F)c1` were, in that order, 75.5% and 90.6 nM.
The like results for `COc1ccc(CNC(=O)c2sc3nnc(C)c(C)c3c2N)cn1` were, in that order, 76.9% and 239 nM.
With `COc1cc(F)c(CNC(=O)c2sc3nnc(C)c(C)c3c2N)cc1F`, the Activity in assay [1] was determined as 68.5%. In addition, the EC50 in assay [2] (read-out: EC50) was 41.4 nM.
The like results for `COc1cc(F)c(CNC(=O)c2sc3nnc(C)c(C)c3c2N)c(F)c1` were, in that order, 87.1% and 100 nM.
The like results for `COc1ccc(CNC(=O)c2sc3nnc(C)c(C)c3c2N)c(F)c1F` were, in that order, 71.2% and 43.4 nM.
The like results for `COc1ccc(CNC(=O)c2sc3nnc(C)c(C)c3c2N)cc1` were, in that order, 83.7% and 130 nM.
Take `COc1ncc(CNC(=O)c2sc3nnc(C)c(C)c3c2N)cc1F`: the Activity in assay [1] was determined as 80.8%. For the same compound, in assay [2] (read-out: EC50), the EC50 worked out at 142 nM.
In the case of `Cc1nnc2sc(C(=O)NCc3ccc(O)c(F)c3)c(N)c2c1C`, in assay [1], the Activity turned out to be 83.1%. Further, the EC50 in assay [2] (read-out: EC50) is 59.1 nM; in assay [2] (read-out: pEC50 (converted)), 60.3 nM.
